Results reported in ChEMBL document CHEMBL1129158, “Marine sponge bis(indole) alkaloids that displace ligand binding to 1 adrenergic receptors” (Bioorg Med Chem Lett, 1996).

Experiments:
[1] = target: T1, Alpha-1A adrenergic receptor (Homo sapiens, UniProt P35348); assay: Compound was tested for its binding affinity towards CHO cells expressing human Alpha-1a adrenergic receptor by displacing [125I]HEAT (2-beta-(4-hydroxyphenyl)-ethylaminomethyltetralone); format: cell-based
T1 sequence (P35348 whole entry): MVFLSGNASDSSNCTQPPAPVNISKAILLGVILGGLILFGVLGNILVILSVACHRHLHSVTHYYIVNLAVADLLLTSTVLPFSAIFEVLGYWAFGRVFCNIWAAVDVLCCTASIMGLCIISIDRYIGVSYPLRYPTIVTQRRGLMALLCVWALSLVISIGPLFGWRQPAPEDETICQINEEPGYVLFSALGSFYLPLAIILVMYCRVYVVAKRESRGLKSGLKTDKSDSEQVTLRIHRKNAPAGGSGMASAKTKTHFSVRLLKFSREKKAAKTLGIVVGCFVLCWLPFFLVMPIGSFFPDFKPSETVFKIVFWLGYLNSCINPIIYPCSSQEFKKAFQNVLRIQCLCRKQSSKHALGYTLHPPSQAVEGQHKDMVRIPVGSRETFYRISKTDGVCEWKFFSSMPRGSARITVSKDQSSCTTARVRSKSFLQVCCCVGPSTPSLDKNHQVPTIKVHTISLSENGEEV

[2] = target: T2, Alpha-1B adrenergic receptor (Homo sapiens, UniProt P35368); assay: Binding affinity against human Alpha-1b adrenergic receptor
T2 sequence (P35368 whole entry): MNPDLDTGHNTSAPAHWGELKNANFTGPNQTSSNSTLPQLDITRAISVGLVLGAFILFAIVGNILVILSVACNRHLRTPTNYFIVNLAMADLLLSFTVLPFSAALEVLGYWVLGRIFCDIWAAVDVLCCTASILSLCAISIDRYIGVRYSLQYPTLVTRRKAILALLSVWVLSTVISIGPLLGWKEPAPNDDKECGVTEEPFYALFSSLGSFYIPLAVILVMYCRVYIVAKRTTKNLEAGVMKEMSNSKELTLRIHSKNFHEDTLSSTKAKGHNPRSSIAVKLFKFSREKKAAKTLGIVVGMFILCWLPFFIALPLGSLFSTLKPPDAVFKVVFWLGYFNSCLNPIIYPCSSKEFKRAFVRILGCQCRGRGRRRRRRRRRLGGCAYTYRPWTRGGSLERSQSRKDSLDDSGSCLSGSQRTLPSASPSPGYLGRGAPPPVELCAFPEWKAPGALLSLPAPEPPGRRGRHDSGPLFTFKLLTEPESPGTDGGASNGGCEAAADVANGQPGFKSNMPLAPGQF

[3] = target: T3, Alpha-1A adrenergic receptor (Rattus norvegicus, UniProt P43140); assay: Binding affinity was determined against Alpha-1a adrenergic receptor
T3 sequence (P43140 whole entry): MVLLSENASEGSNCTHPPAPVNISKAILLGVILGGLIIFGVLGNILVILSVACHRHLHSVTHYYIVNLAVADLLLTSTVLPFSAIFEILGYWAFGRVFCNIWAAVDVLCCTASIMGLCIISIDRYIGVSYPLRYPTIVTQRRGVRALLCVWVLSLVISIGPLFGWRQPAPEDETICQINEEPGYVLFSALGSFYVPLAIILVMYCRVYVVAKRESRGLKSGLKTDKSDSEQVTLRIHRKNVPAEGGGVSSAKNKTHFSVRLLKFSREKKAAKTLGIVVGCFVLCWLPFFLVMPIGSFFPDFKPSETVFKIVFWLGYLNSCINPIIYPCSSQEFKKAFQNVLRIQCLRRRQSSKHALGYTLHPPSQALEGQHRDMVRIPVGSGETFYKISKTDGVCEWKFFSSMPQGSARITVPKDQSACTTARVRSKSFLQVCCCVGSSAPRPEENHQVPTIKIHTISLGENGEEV

[4] = target: Adrenergic receptors; alpha-1 A & B (Homo sapiens) (UniProt P35348+P35368); assay: Selectivity is determined from the ratio of binding affinities of alpha 1a adrenoceptor to alpha 1b adrenoceptor; format: protein assay
[5] = target: Alpha-1B adrenergic receptor (Mesocricetus auratus, UniProt P18841); assay: Compound was tested for its binding affinity towards Rat-1 cells stably expressing hamster alpha-1b adrenergic receptor by displacing [125I]HEAT (2-beta-(4-hydroxyphenyl)-ethylaminomethyltetralone); format: cell-based
Sequence of Alpha-1B adrenergic receptor (Mesocricetus auratus, UniProt P18841) (P18841 whole entry, looked up): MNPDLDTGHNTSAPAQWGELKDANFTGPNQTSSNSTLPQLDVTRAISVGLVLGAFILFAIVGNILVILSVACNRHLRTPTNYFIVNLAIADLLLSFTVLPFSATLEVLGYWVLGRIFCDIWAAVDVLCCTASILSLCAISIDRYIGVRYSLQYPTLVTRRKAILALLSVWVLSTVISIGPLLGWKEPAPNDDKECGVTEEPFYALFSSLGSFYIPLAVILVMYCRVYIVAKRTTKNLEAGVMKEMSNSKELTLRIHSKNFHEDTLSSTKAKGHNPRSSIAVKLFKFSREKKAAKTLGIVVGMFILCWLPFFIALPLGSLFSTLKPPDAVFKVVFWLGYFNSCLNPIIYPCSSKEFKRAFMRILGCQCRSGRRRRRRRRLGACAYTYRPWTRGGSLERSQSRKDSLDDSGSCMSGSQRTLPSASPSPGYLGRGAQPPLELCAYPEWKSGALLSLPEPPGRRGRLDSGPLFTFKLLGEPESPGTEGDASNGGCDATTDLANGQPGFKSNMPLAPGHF

SMILES | Ki [1] [nM] | Ki [2] [nM] | Ki [3] [nM] | Selectivity [4] | Ki [5] [nM]
O=C(c1nc(-c2c[nH]c3cc(Br)ccc23)c[nH]1)c1c[nH]c2cc(O)ccc12 [BROMOTOPSENTIN] | 12600 | – | – | 17 | –
Brc1ccc2c(-c3c[nH]c(-c4c[nH]c5cc(Br)ccc45)n3)c[nH]c2c1 [NORTOPSENTIN A] | 2140 | – | – | 4.1 | –
O=C(c1nc(-c2c[nH]c3ccccc23)c[nH]1)c1c[nH]c2cc(O)ccc12 [TOPSENTIN] | – | – | – | 4.1 | 4740

Continued, values first:

Ki [1] [nM] | Ki [2] [nM] | Ki [3] [nM] | Selectivity [4] | Ki [5] [nM] | SMILES
140 | 78 | 138 | 1.8 | – | CN1C[C@H](c2c[nH]c3c(Br)c(Br)cc(O)c23)NC[C@H]1c1c[nH]c2cc(Br)ccc12
770 | – | – | 5.9 | – | Brc1ccc2c(-c3nc(-c4c[nH]c5ccccc45)c[nH]3)c[nH]c2c1 [NORTOPSENTIN B]
550 | – | – | 3.2 | – | Brc1ccc2c(-c3c[nH]c(-c4c[nH]c5ccccc45)n3)c[nH]c2c1 [NORTOPSENTIN C]
